The experiment has as its target T1, S. aureus PrsA-PPIase (Staphylococcus aureus, UniProt P60747).
T1 construct: parvulin-type PPIase domain, residues 140-245, GST fusion (pGEX-2T) from E. coli BL21, GST cleaved off by protease; 15N- or 13C/15N-labelled for NMR
Nature of the experiment: NMR titration. The format is binding. The settings on record: S1-H1 loop; data not shown.

Structures are written as SMILES.

T1 sequence (P60747 140-245): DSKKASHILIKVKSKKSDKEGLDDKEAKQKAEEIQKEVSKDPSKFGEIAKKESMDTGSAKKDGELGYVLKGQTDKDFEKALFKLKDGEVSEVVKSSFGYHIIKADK

Regarding `O=S(=O)(O)O` [sodium sulphate], the NMR titration entry is on record as “Binding of multivalent anions to the S1-H1 loop of PrsA-PPIase was also confirmed by NMR titrations”.
